Experiments:
human vanin-1 = human vanin-1 (Homo sapiens (Human), UniProt O95497); assay: Human Vanin-1 Enzyme Assay 1; format: biochemical; conditions: 25 pM human vanin-1, 50 uM pantetheine 7-amino-4-trifluoromethylcoumarin substrate
Procedure: Human Vanin-1Enzyme Assay 1.
The in vitro assay measures enzymatic cleavage of the fluorescently-labeled vanin substrate, pantetheine 7-amino-4-trifluoromethylcoumarin, by human vanin-1.
The vanin-1 protein was prepared in-house from a construct expressing the extracellular domain of human vanin-1 (GenBank ID NM_004666) preceded N-terminally by the honey bee melittin signal peptide, a GSG linker sequence, a His6× tag and a FLAG tag. The secreted, soluble enzyme was purified from the conditioned medium from a CHO cell line stably expressing the resulting protein. Enzyme purification was performed through sequential Ni NTA and size-exclusion chromatography steps.
Intermediate concentrations were prepared by diluting in DMSO in a four-fold series for a total of 11 data points.
To begin the assay 100 nL was transferred from the compound plate to the assay plate. Next, 15 μL of the vanin-1 working solution were transferred to the assay plate. The inhibitor and enzyme were incubated at room temperature for 30 minutes. The enzyme reaction was then initiated by the addition of 5 μL of 200 μM pantetheine 7-amino-4-trifluoromethylcoumarin prepared in assay buffer. […] The final concentration of DMSO was 0.5%.

[1] = molecular target: human vanin-1 present in human plasma (Homo sapiens (Human), UniProt O95497); assay: Vanin-1 in Human Plasma Assay; format: biochemical; conditions: 50% pooled human plasma, 50 uM substrate
Procedure: Vanin-1 in Human Plasma Assay.
The in vitro assay measures enzymatic cleavage of the fluorescently-labeled vanin substrate, pantetheine 7-amino-4-trifluoromethylcoumarin, by human vanin-1 present in human plasma.
Human plasma was prepared from whole blood drawn from healthy donors, collected in tubes containing sodium heparin. The plasma fractions were separated from the whole blood by centrifugation for 10 minutes at 2000×g and pooled.
The test inhibitors were solubilized in DMSO to a stock concentration of 30 mM. On the day of the assay, dose response plates were prepared by diluting the inhibitors in DMSO to a compound concentration 200-fold the final in-assay concentration. Concentration series were prepared by serially diluting in 100% DMSO in a three-fold series. […] From this intermediate compound plate, 10 μL were transferred to the assay plate and mixed with 20 uL of the pooled human plasma. The inhibitor and enzyme were co-incubated at room temperature for 30 minutes. The enzyme reaction was initiated by the addition of 10 μL of 200 uM pantetheine 7-amino-4-trifluoromethylcoumarin prepared in assay buffer. The final concentrations in the assay were 50% plasma, and 50 uM substrate. The final concentration of DMSO was 0.5%. Datapoints were measured over time using a Tecan Safire 2 platereader at 405 nm excitation wavelength and a 510 nm emission wavelength for detection.

Sequence of human vanin-1 (O95497 22-491): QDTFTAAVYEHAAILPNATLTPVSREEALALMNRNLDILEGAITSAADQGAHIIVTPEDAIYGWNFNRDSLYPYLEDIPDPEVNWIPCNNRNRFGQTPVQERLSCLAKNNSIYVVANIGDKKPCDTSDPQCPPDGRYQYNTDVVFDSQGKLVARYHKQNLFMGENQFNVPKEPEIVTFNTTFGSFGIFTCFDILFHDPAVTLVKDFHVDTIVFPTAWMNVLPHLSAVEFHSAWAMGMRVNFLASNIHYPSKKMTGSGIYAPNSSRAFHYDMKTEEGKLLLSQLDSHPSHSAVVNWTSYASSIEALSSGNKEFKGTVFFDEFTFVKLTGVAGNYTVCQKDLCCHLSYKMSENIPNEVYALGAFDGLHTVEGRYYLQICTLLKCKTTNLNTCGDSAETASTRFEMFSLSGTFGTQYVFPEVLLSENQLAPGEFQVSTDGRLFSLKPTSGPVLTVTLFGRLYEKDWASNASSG
Sequence of human vanin-1 present in human plasma (O95497 22-491): as above

IC50 (human vanin-1) [nM] | IC50 [1] [nM] | SMILES
32.6 | 39.1 | O=C(c1cnc(NCc2cncnc2C(F)(F)F)nc1)N1CCC2(CCOCC2)C1 [Example 166]
< 0.094 | 0.838 | CC(C)(Nc1ncc(C(=O)N2CC3(CCOCC3)C2)cn1)c1cnccn1 [Example 131, 7-oxa-2-azaspiro[3.5]non-2-yl(2-{[2-(pyrazin-2-yl)propan-2-yl]amino}pyrimidin-5-yl)methanone]
175 | 205 | O=C(c1cnc(NC2(c3cncnc3)CC2)nc1)N1CCCC(F)(F)C1 [Example 70]
7.12 | 5.39 | O=C(c1cnc(NC2(c3cncnc3)CC2)nc1)N1CCC(C(F)(F)F)C1 (single isomer, unassigned) [Example 193]
0.65 | 1.89 | C[C@H](Nc1ncc(C(=O)N2CC3(CCOCC3)C2)cn1)c1cnccn1 [Example 147]
5.48 | 4.63 | O=C(c1cnc(NCc2cncnc2)nc1)N1CC2(CCOCC2)C1 [Example 186]
0.677 | 1.3 | C[C@H](Nc1ncc(C(=O)N2CCC3(CCOCC3)C2)cn1)c1cncnc1 [Example 149]
0.277 | 1.17 | O=C(c1cnc(NC2(c3cncnc3)CC2)nc1)N1CCC2(CCOCC2)C1 [Example 188, 8-oxa-2-azaspiro[4.5]dec-2-yl(2-{[1-(pyrimidin-5-yl)cyclopropyl]amino}pyrimidin-5-yl)methanone]
1180 | > 793 | N#CC1CCCN(C(=O)c2cnc(NC3(c4cncnc4)CC3)nc2)C1 (single isomer, unassigned) [Example 196]
0.116 | 1.61 | O=C(c1cnc(NC2(c3cncnc3)CCC2)nc1)N1CCC2(CCOCC2)C1 [Example 173]
7.33 | 14.4 | O=C(c1cnc(NC2(c3ncccn3)CC2)nc1)N1CC2(CCOCC2)C1 [Example 179]
1.45 | 2.21 | CC(Nc1ncc(C(=O)N2CC3(CCOCC3)C2)cn1)c1cncnc1 (centres unmarked) [Example 184]
10.6 | 32.6 | CS(=O)(=O)C1CCCN(C(=O)c2cnc(NC3(c4cncnc4)CC3)nc2)C1 (single isomer, unassigned) [Example 200]
0.43 | 0.524 | O=C(c1cnc(NC2(c3cncnc3)COC2)nc1)N1CCC2(CCOCC2)C1 [Example 133]
47.4 | 49.2 | O=C(c1cnc(NC2(c3cncnc3)CC2)nc1)N1CCC2(CC1)COC2 [Example 59]
79.8 | 68 | O=C(c1cnc(NC2(c3cncnc3)CC2)nc1)N1CCCC1 [Example 87]
0.062 | 1.08 | CC(C)(Nc1ncc(C(=O)N2CCC3(CCOCC3)C2)cn1)c1cnccn1 [Example 182, 8-oxa-2-azaspiro[4.5]dec-2-yl(2-{[2-(pyrazin-2-yl)propan-2-yl]amino}pyrimidin-5-yl)methanone]
6.33 | 16.5 | Cc1ncc(CNc2ncc(C(=O)N3CCC4(CCOCC4)C3)cn2)cn1 [Example 170]
387 | 452 | CC1(CO)CCCN(C(=O)c2cnc(NC3(c4cncnc4)CC3)nc2)C1 (centres unmarked) [Example 108]
10.9 | 9.86 | COC1CCCN(C(=O)c2cnc(NC3(c4cncnc4)CC3)nc2)C1 (centres unmarked) [Example 96]

IC50 (human vanin-1) [nM] | IC50 [1] [nM] | SMILES
3.38 | 3.7 | O=C(c1cnc(NCc2cnccn2)nc1)N1CC2(CCOCC2)C1 [Example 135]
27.8 | 35.6 | C[C@@H](Nc1ncc(C(=O)N2CCC3(CCOCC3)C2)cn1)c1cncnc1 [Example 150]
4.39 | 27.5 | C[C@H](Nc1ncc(C(=O)N2CCC3(CCOCC3)C2)cn1)c1ccncn1 [Example 155]
< 0.041 | 0.743 | O=C(c1cnc(NC2(c3cnccn3)CCC2)nc1)N1CCC2(CCOCC2)C1 [Example 130, 8-oxa-2-azaspiro[4.5]dec-2-yl(2-{[1-(pyrazin-2-yl)cyclobutyl]amino}pyrimidin-5-yl)methanone]
12.5 | 12.4 | O=C(c1cnc(NC2(c3cncnc3)CC2)nc1)N1CCCCC1 [Example 190]
0.875 | 12.9 | O=C(c1cnc(NC2(c3cnccn3)CC2)nc1)N1CCC2(CCOCC2)C1 [Example 157]
1.11 | 2.03 | O=C(c1cnc(NC2(c3cnccn3)CC2)nc1)N1CC2(CCOCC2)C1 [Example 158]
0.082 | 1.22 | CC(C)(Nc1ncc(C(=O)N2CCC3(CCOCC3)C2)cn1)c1cncnc1 [Example 143, 8-oxa-2-azaspiro[4.5]dec-2-yl(2-{[2-(pyrimidin-5-yl)propan-2-yl]amino}pyrimidin-5-yl)methanone]
0.293 | 0.905 | O=C(c1cnc(NC2(c3cncnc3)CCC2)nc1)N1CC2(CCOCC2)C1 [Example 174]
108 | – | O=C(c1cnc(NC2(c3cncnc3)CC2)nc1)N1C[C@H]2CC[C@@H](C1)O2 [Example 33]
0.955 | – | C[C@H](Nc1ncc(C(=O)N2CC3(CCOCC3)C2)cn1)c1cncnc1 [Example 151]
16 | – | O=C(c1cnc(NCc2cccnc2)nc1)N1CC(O)(C2CC2)C1 [Example 5]
30.8 | – | O=C(c1cnc(NC2(c3cncnc3)CC2)nc1)N1CCCC(CO)C1 (centres unmarked) [Example 106]
30.1 | – | CCC1(CO)CCN(C(=O)c2cnc(NC3(c4cncnc4)CC3)nc2)CC1 [Example 95]
328 | – | O=C(c1cnc(NCc2cccnc2)nc1)N1CCC(F)(CO)CC1 [Example 17]
50.9 | – | CCOCC1(F)CCN(C(=O)c2cnc(NC3(c4cncnc4)CC3)nc2)CC1 [Example 92]
613 | – | CC(=O)NC1CCCN(C(=O)c2cnc(NCc3cccnc3)nc2)C1 (centres unmarked) [Example 23]
156 | – | N#CCC1CCCCN1C(=O)c1cnc(NCc2cccnc2)nc1 (centres unmarked) [Example 14]
0.283 | – | CC1CC2(CCN(C(=O)c3cnc(NC4(c5cncnc5)CC4)nc3)C2)CC(C)O1 (centres unmarked) [Example 54]
407 | – | O=C(c1cnc(NCc2cccnc2)nc1)N1Cc2ccccc2C1 [Example 19]

SMILES | IC50 (human vanin-1) [nM] | IC50 [1] [nM]
Cc1ccc(CNc2ncc(C(=O)N3CCC4(CCOCC4)C3)cn2)cn1 [Example 137] | 5.24 | 5.02
Cc1ccc(C(C)Nc2ncc(C(=O)N3CCC4(CCOCC4)C3)cn2)cn1 (centres unmarked) [Example 162] | 0.629 | 2.97
Cc1ccc([C@H](C)Nc2ncc(C(=O)N3CCC4(CCOCC4)C3)cn2)cn1 [Example 140] | 0.283 | 0.95
Cc1ccc(CNc2ncc(C(=O)N3CC4(CCOCC4)C3)cn2)cn1 [Example 172] | 4.53 | 17.4
